Measurements from US10316025B2, “Substituted piperazine compounds and methods of use and use thereof” (SUNSHINE LAKE PHARMA CO., LTD., priority 2015, dated 2019).

Assays:
5-HT1A receptors = biological target: T1, 5-HT1A receptors (Homo sapiens, UniProt P08908); experiment: h5-HT1A binding affinity test ([3H]8-OH-DPAT, HEK-293 cell homogenates); settings: 0.3 nM [3H]8-OH-DPAT, 22°C, 60 min, Ki from IC50 by ChengPrusoff equation
T1 construct: host or cells: human HEK-293 cell homogenates
T1 sequence (P08908 1-422): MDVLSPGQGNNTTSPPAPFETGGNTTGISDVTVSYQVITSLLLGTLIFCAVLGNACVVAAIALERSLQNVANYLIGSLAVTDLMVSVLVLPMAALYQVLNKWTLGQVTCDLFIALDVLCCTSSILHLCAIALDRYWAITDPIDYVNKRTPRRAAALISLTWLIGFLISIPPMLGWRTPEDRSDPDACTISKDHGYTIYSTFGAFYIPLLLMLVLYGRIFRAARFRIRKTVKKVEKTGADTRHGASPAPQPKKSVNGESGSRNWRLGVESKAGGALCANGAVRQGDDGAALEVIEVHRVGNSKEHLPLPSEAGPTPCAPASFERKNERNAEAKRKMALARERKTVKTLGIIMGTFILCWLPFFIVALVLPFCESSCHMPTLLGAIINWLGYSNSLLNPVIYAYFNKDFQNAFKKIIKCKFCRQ
Protocol: Human HEK-293 cell homogenates (36 μg of protein) were incubated at 22° C. for 60 minutes with 0.3 nM of [^3H]8-OH-DPAT (Perkin-Elmer) in the absence or presence of the test compound in a buffer solution containing 50 mM of Tris-HCl (pH 7.4), 10 mM of MgSO4, 0.5 mM of EDTA and 2 μg/mL aprotinine.
The non-specific binding value was determined by incubating the same mixture in the presence of 10 μM of 8-OH-DPAT, which was used as the standard reference compound. Competitive curve was obtained by testing data of 8-OH-DPAT in each experiment at several concentrations.
The incubated samples were filtered fastly using a 96-sample cell harvester (Unifilter, Packard) through fiberglass filter membranes (GF/B, Packard) pre-soaked with 0.3% PEI in vacuo, and washed several times with an ice cold 50 mM of Tris-HCl. The filter membranes were dried and the retained radioactivity was measured in a scintillation counter (Topcount, Packard) using a scintillation cocktail (Microscint 0, Packard). The experimental results were expressed as inhibition percentage of radioactive ligand specific binding relative to control groups.
The experiments of combining [^3H]8-OH-DPAT (0.3 nM) with 5-HT1A receptors of human HEK-293 cells were accomplished by using Scintillation Proximity Assay on membrane. The test compounds were required to be tested at least three times in the case of a concentration of more than 6 log, and the data were analyzed by the method of nonlinear regression using Hill equation curve to obtain an IC50 value, and then the IC50 value was calculated by ChengPrusoff equation to obtain a Ki value.

[1] = biological target: T2, human 5-HT transporters (SERT) (Homo sapiens, UniProt P31645); experiment: Affinity to CHO cells-transfected human-derived 5-HT transporter ([3H]imipramine binding); settings: 2 nM [3H]imipramine, CHO cell membrane homogenate, 22°C, 60 min
T2 construct: expressed in transfected cells; host or cells: CHO cells (membrane homogenate)
T2 sequence (P31645 whole entry): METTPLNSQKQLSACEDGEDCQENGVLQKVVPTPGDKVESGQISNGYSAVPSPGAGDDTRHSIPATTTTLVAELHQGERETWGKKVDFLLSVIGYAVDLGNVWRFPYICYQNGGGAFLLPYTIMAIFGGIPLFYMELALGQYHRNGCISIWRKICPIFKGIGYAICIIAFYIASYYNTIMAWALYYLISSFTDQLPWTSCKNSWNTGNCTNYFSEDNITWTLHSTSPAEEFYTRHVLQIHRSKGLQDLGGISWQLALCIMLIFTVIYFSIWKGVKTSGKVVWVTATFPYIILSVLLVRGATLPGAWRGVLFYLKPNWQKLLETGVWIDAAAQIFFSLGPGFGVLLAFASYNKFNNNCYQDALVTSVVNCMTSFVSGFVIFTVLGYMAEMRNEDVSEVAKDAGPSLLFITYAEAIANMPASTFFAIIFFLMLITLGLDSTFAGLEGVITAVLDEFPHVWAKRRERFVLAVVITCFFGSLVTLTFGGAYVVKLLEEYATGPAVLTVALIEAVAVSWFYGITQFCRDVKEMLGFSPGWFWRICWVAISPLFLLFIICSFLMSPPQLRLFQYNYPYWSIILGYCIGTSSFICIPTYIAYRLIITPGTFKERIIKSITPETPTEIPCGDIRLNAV
Protocol: To a mixed system of cell membrane homogenate protein (12 μg), 2 nM of [^3H] imipramine and buffer solution (50 mM of Tris-HCl (pH 7.4), 120 mM of NaCl, 0.5 mM of KCl and 0.1% BSA) was added or not added the test compound at 22° C., and then the resulting mixture was incubated for 60 minutes.
To the mixed system mentioned above was added 10 μM of imipramine for measuring nonspecific binding values.
After incubation, the samples were filtered rapidly in vacuo with a 96-sample cell harvester (Unifilter, Packard) through glass-fiber filters (GF/B, Packard) pre-soaked with 0.3% PEI and rinsed several times with an ice-cold 50 mM of Tris-HCl and 150 mM of NaCl. The filters were dried and the retained radioactivity was measured by means of a scintillation counter (Topcount, Packard) using a scintillation cocktail (Microscint O, Packard). Each experimental result was expressed as a percentage inhibition of radioactive ligand specific binding relative to control groups.
The standard reference compound was imipramine, and ICso values were calculated by the competitive curve obtained from a series of concentrations of the experimental test. The experimental results of the affinity of the compounds disclosed herein to human 5-HT transporters (SERT) were listed in Table A.

[2] = Pharmacokinetic evaluation in rats after intravenous or gavage administration; type: in vivo, SD rats; settings: for AUC(0-inf) / AUC(0-t) / Cmax / Tmax / clearance / half-life / Vd: SD, rat, plasma; for Vd: read-out: Vss
Protocol: The pharmacokinetic evaluation of the compound disclosed herein in rats, dogs and monkeys was carried out in this invention, and animal information as described in Table 1.
The compounds disclosed herein were administered in form of a saline solution containing 5% DMSO, 5% Kolliphor HS 15, 2% (2% HCl) and 88% Saline, or a physiological saline solution containing 10% DMSO, 10% Kolliphor HS 15 and 80% physiological saline to an animal subject. The animals of the intravenous administration group were administered at a dose of 1 mg/kg, and 0.3 mL of vein blood samples were collected at the time points of 0, 0.083, 0.25, 0.5, 1.0, 2.0, 5.0, 7.0 and 24 h after drug administration, then each blood sample was processed to separate plasma by centrifugation at 3000 rpm or 4000 rpm for 10 minutes, and the plasma samples were collected and stored at −20° C. or −70° C. The animals of the gavage administration group were administered at a dose of 2.5 mg/kg, and 0.3 mL of vein blood samples were collected at the time points of 0, 0.083, 0.25, 0.5, 1.0, 2.0, 5.0, 7.0 and 24 h after drug administration, then each blood sample was processed to separate plasma by centrifugation at 3000 rpm or 4000 rpm for 10 minutes, and the plasma samples were collected and stored at −20° C. or −70° C.
The above plasma was analyzed by the LC/MS/MS system.
The LC/MS/MS system for the analysis comprises an Agilent 1200 Series Vacuum Degasser, binary syringe pumps, a well-plate autosampler, a column oven and an Agilent G6430A Triple Quadrupole Mass Spectrometer equiped with an electrospray ionization (ESI) source.
Analysis was performed on waters XBridge C18 (2.1×50 mm, […] column, and 5 μL of sample was injected). Conditions of the analysis comprise: a mobile phase consisting of mobile phase A (water, 2 mM ammonium formate and 0.1% formic acid) and mobile phase B (methanol, 2 mM ammonium formate and 0.1% formic acid). A flow rate of 0.4 mL/min.

Compound	Ki (5-HT1A receptors) [nM]	IC50 [1] [nM]	AUC(0-inf) ([2]; iv, 1 mg/kg) [ng·h/mL]	AUC(0-t) ([2]; iv, 1 mg/kg) [ng·h/mL]	Cmax ([2]; iv, 1 mg/kg) [ng/mL]	Tmax ([2]; iv, 1 mg/kg) [h]	clearance ([2]; iv, 1 mg/kg) [mL/min/kg]	half-life ([2]; iv, 1 mg/kg) [h]	Vd ([2]; iv, 1 mg/kg) [L/kg]	AUC(0-inf) ([2]; po, 2.5 mg/kg) [ng·h/mL]	AUC(0-t) ([2]; po, 2.5 mg/kg) [ng·h/mL]	Cmax ([2]; po, 2.5 mg/kg) [ng/mL]	Tmax ([2]; po, 2.5 mg/kg) [h]	half-life ([2]; po, 2.5 mg/kg) [h]	F ([2]; po, 2.5 mg/kg) [%]
N#Cc1ccc2[nH]cc(CCCCN3CCN(c4ncc(-c5ccc(C(N)=O)cc5)cn4)CC3)c2c1 [Example 5, 4-(2-(4-(4-(5-cyano-1H-indol-3-yl)butyl)piperazin-1-yl)pyrimidin-5-yl)benzamide]	8.42	0.79	–	–	–	–	–	–	–	–	–	–	–	–	–
N#Cc1ccc2[nH]cc(CCCCN3CCN(c4ncc(-c5ccc(F)cc5F)cn4)CC3)c2c1 [Example 13, 3-(4-(4-(5-(2,4-difluorophenyl)pyrimidin-2-yl)piperazin-1-yl)butyl)-1H-indole-5-carbonitrile]	1.3	1.2	724	643	330	0.083	23.8	3.9	6	1160	1070	152	1	4.14	66.4
COc1ccccc1-c1cnc(N2CCN(CCCc3c[nH]c4ccc(C#N)cc34)CC2)nc1 [Example 10]	3.4	0.84	–	–	–	–	–	–	–	–	–	–	–	–	–
N#Cc1ccc2[nH]cc(CCCN3CCN(c4ncc(-c5ccc(F)cc5F)cn4)CC3)c2c1 [Example 14, 3-(3-(4-(5-(2,4-difluorophenyl)pyrimidin-2-yl)piperazin-1-yl)propyl)-1H-indole-5-carbonitrile]	0.92	0.58	1500	1340	193	0.25	11.6	7.53	6.41	3130	2790	180	5	7.28	83.28
N#Cc1ccc2[nH]cc(CCCCN3CCN(c4ncc(-c5cccc(C(N)=O)c5)cn4)CC3)c2c1 [Example 1, 3-(2-(4-(4-(5-cyano-1H-indol-3-yl)butyl)piperazin-1-yl)pyrimidin-5-yl)benzamide]	2.87	0.86	–	–	–	–	–	–	–	–	–	–	–	–	–
N#Cc1ccc2[nH]cc(CCCN3CCN(c4ncc(-c5cccc(C(N)=O)c5)cn4)CC3)c2c1 [Example 2, 3-(2-(4-(3-(5-cyano-1H-indol-3-yl)propyl)piperazin-1-yl)pyrimidin-5-yl) benzamide]	1.21	0.35	753	722	409	0.083	22.9	1.59	2.33	767	706	241	0.833	1.95	39.2
N#Cc1ccc2[nH]cc(CCCN3CCN(c4ncc(-c5ccc(C(N)=O)cc5)cn4)CC3)c2c1 [Example 6, 4-(2-(4-(3-(5-cyano-1H-indol-3-yl)propyl)piperazin-1-yl)pyrimidin-5-yl) benzamide]	4.13	0.93	–	–	–	–	–	–	–	–	–	–	–	–	–
